The subject of one data set is Casein. The data set is described as follows: Proteinase activity on casein (Folin's method), specific activity in mPU. In kind it is biochemical. How it is done: In Examples 1 and 2, the term "mPU/ml protein of a specific activity" signifies the proteinase activity determined by the following procedure:
Casein (2%, pH 7.4, 1 ml) is admixed with 1 ml of an appropriately diluted solution of an enzyme, and after a reaction at 40° C. for 10 minutes, 2.0 ml of a solution containing 0.1M trichloroacetic acid and 0.2M sodium acetate is immediately added for stopping a progress of the reaction. The mixture is kept at the same temperature for 20 minutes to precipitate unreacted casein completely and is filtered. 1 ml of the filtrate is subject to determination of tyrosine therein contained by the Folin's method. By the increase of 1γ of tyrosine per 1 minute, a proteinase activity of 1 mPU is to be indicated. 1 mPU×1,000 is equal to 1 PU.

Data set [1] is described as follows: Antigenic activity listed among the identified properties of the toxoids. The following applies: listed property.
The test system of data set [2] is rabbits. Description: Antigenicity test on rabbits, Test A: passive hemagglutinative value test (PHA test). To be noted: reciprocal of serum dilution; individual rabbits, 1 mg s.c. with Freund's incomplete adjuvant 3 to 4 times, blood two weeks after last inoculation. In kind it is in vivo, rabbit. As for the experimental part: (§1) Method: Three rabbits, each having 2.5 Kg of a body weight, were subcutaneously inoculated with each 1 mg of Toxoid I together with Freund's incomplete adjuvant and the inoculation was repeated 3 to 4 times at an interval of 2 weeks. On the day of two weeks after the last inoculation, blood was collected from the rabbits and was availed for following Tests A, B and C. The same method as the preceeding was conducted employing Toxoid II.
(§2) The values were determined according to a method described by one of the present inventors, Y. Homma, in The Japan J. Exp. Med., Vol. 45, No. 5, pages 361-365 (1975), and the values were expressed as a reciprocal number to a multiplied number of the dilution of sera.

Data set [3] has as its system rabbits. Description: Antigenicity test on rabbits, Test B: precipitation in agar-gel test. It is filed as in vivo, rabbit. The following applies: 22° C., 24 hours, dilution at which precipitation line first becomes observable, individual rabbits. As for the experimental part:
as §1
In 0.01M phosphate buffer-normal saline solution (pH 7.0) which contained 0.1% of sodium azide, agarose was dissolved to form a concentration of 1.5% by weight, and 10 ml of the solution were poured in a dish having 9 cm of a diameter and the solution was left to make the agar hard. Several holes were made on the hardened agar and antigens or antisera were separately poured into every hole and the agar was left at 22° C. for 24 hours long, then, the existence of a precipitation line was inspected. The concentration of antigens is expressed by a unit of μg/ml, wherein the numerator indicates a quantity of antigens and a denominator indicates the dilution volume which is required until a precipitation line will first becomes observable.

Data set [4] concerns rabbits. Description: Antigenicity test on rabbits, Test C: elastase-neutralizing activity test of sera. The following applies: elastase activity neutralized by 1 ml of anti-serum; individual rabbits. It is filed as in vivo, rabbit. How it is done:
as §1
(§3) Sera of the tested rabbits were warmed at 56° C. for 30 minutes and 0.2 ml of the sera were added to 0.2 ml of elastase solution, to which normal saline solution was added up to a volume of 2 ml in total. The solution was left for 60 minutes at 37° C., then, 1 ml of 2% casein solution was added to 1 ml of the solution. The residual elastase activity was determined with the thus mixed solution.

Data set [5] relates to ddY mice. The data set is described as follows: PHA value on mice. It is filed as in vivo, mouse. To be noted: 50 μg with potassium alum three times, first and second collected bloods (just before and 14th day after third inoculation). As for the experimental part: as §2
(§4) To a solution of Toxoid I of this invention in a concentration of 0.5 mg/ml., an equal volume of 1% potassium alum solution was added. Each 0.2 ml of the solution, in which 50 μg of Toxoid I were contained, were inoculated into ddY mice of 4 weeks old respectively three times at an interval of 2 weeks. At just before and on the 14th day after the third inoculation, bloods were collected from each mouse and the values of PHA and elastase-neutralizing activity were inspected in the same manner as with Tests A and C in Experiment 1.

For data set [6], the system named is ddY mice. The data set is described as follows: Elastase-neutralizing activity on mice. It is filed as in vivo, mouse. How it is done:
as §3, §4

For data set [7], the system named is Pseudomonas aeruginosa elastase. The following applies: incubation of the reagent with the enzyme; Nishino and Powers, J. Biol. Chem. (1980); cited from earlier work.
Data set [8] can be described thus: Antigenic activity of formalin-treated elastase samples by precipitation line (Table 1). The following applies: quantity of antigen per dilution volume until a precipitation line first becomes visible; larger numeral = less potent. In kind it is binding. An excerpt:
Note: In the above Table 1, the antigenic activity is expressed by a unit of μg/ml, wherein the numerator indicates the quantity of antigen and the denominator indicates the dilution volume required until a precipitation line first becomes visible.

The text below walks through data of patent publication US4575459A, “Toxoids of elastase of Pseudomonas aeruginosa origin” (Toho Yakuhin Kogyo Kabushiki Kaisha, priority 1984, dated 1986).

“And” between values parts separate entries of the source, which are not always exact repeats. Equal values may be shown once.

Regarding “Toxoid I: toxoid prepared by inactivating Pseudomonas aeruginosa elastase with the Powers Reagent”, the specific activity in the data set on Casein (casein 2%, pH 7.4, 40° C., 10 minutes) was 0.06 mPU/mg protein. In addition, in the data set with Casein (listed property), the Enzymatic activity entry is on record as “Negative”. In addition, the Antigenic activity entry in data set [1] is reported as “Positive”. The “PHA Value” with rabbits [2] is 5120 and 2560; in the data set on ddY mice [5], 640. Further, the “Antigen Concentration” value in the data set on rabbits [3] amounted to 15 µg/mL. The “Elastase-neutralizing Activity (mPU/ml)” value in the data set on rabbits [4] is 15 mPU/ml and 12 mPU/ml and 10 mPU/ml. Besides, the figures for the elastase-neutralizing activity with ddY mice [6] (first collected blood (just before third inoculation)) and in the data set with ddY mice [6] (second collected blood (14th day after third inoculation)) were 1.52 mPU/ml and 1.83 mPU/ml, respectively.

Take `CC(C)C[C@@H](C(=O)N[C@@H](C)C(=O)NCC(N)=O)N(O)C(=O)CCl` [Powers Reagent, chloroacetyl-N-hydroxy-L-leucyl-L-alanylglycinamide]: the “effect on enzyme activity of elastase” value in data set [7] was “progressive loss of enzyme activity”.

Take “crystalline elastase: purified crystalline elastase obtained from Pseudomonas aeruginosa, raw material of the toxoids”: in the data set on Casein (elastase samples treated with formalin (HCHO), Table 1), the “Residual Proteinase Activity (%)” value is listed as 100%. Also, in data set [8], the “Antigenic activity” value amounted to 30 µg/mL. For the same compound, the “Antigen Concentration” value in the data set on rabbits [3] is 15 µg/mL.
